Test results reported in ChEMBL document CHEMBL4507256 (2021).

Experiments:
[1] = target: Melanocortin receptor 4 (Homo sapiens) (UniProt P32245); assay: MC4 (h) CEREP ligand profiling; details: Compound concentration 10.0 uM
[2] = target: Ribosomal protein S6 kinase beta-1 (Homo sapiens) (UniProt P23443); details: Compound concentration 1000.0 nM
[3] = target: Tyrosine-protein kinase JAK1 (Homo sapiens) (UniProt P23458); details: Compound concentration 1000.0 nM
[4] = target: T1, GABA-A receptor; anion channel (Homo sapiens) (UniProt P14867+P47870+P18507+P28472+P48169+Q99928+Q9UN88+P34903+O00591+O14764+Q8N1C3+P18505+P78334+P47869+P31644+Q16445); assay: Cl- channel CEREP ligand profiling; assay type: protein-complex assay; details: Compound concentration 10.0 uM
[5] = target: Endothelin receptor type B (Homo sapiens) (UniProt P24530); assay: ETB (h) CEREP ligand profiling; details: Compound concentration 10.0 uM
[6] = target: D(3) dopamine receptor (Homo sapiens) (UniProt P35462); assay: D3 (h) CEREP ligand profiling; details: Compound concentration 10.0 uM
[7] = target: Tumor necrosis factor (Homo sapiens) (UniProt P01375); assay: TNF-alpha (h) CEREP ligand profiling; details: Compound concentration 10.0 uM
[8] = K+ channel CEREP ligand profiling; details: Compound concentration 10.0 uM
[9] = target: Cannabinoid receptor 1 (Homo sapiens) (UniProt P21554); assay: CB1 (h) CEREP ligand profiling; details: Compound concentration 10.0 uM
[10] = target: Sodium-dependent noradrenaline transporter (Homo sapiens) (UniProt P23975); assay: NE transporter CEREP ligand profiling; details: Compound concentration 10.0 uM
[11] = target: Beta-1 adrenergic receptor (Homo sapiens) (UniProt P08588); assay: beta1 (h) CEREP ligand profiling; details: Compound concentration 10.0 uM
[12] = target: Adrenergic receptor alpha-2 (Homo sapiens) (UniProt P08913+P18825+P18089); assay: alpha 2 CEREP ligand profiling; assay type: protein assay; details: Compound concentration 10.0 uM
[13] = target: BMP-2-inducible protein kinase (Homo sapiens) (UniProt Q9NSY1); details: Compound concentration 1000.0 nM
Sequence of BMP-2-inducible protein kinase (Homo sapiens) (Q9NSY1 whole entry, looked up): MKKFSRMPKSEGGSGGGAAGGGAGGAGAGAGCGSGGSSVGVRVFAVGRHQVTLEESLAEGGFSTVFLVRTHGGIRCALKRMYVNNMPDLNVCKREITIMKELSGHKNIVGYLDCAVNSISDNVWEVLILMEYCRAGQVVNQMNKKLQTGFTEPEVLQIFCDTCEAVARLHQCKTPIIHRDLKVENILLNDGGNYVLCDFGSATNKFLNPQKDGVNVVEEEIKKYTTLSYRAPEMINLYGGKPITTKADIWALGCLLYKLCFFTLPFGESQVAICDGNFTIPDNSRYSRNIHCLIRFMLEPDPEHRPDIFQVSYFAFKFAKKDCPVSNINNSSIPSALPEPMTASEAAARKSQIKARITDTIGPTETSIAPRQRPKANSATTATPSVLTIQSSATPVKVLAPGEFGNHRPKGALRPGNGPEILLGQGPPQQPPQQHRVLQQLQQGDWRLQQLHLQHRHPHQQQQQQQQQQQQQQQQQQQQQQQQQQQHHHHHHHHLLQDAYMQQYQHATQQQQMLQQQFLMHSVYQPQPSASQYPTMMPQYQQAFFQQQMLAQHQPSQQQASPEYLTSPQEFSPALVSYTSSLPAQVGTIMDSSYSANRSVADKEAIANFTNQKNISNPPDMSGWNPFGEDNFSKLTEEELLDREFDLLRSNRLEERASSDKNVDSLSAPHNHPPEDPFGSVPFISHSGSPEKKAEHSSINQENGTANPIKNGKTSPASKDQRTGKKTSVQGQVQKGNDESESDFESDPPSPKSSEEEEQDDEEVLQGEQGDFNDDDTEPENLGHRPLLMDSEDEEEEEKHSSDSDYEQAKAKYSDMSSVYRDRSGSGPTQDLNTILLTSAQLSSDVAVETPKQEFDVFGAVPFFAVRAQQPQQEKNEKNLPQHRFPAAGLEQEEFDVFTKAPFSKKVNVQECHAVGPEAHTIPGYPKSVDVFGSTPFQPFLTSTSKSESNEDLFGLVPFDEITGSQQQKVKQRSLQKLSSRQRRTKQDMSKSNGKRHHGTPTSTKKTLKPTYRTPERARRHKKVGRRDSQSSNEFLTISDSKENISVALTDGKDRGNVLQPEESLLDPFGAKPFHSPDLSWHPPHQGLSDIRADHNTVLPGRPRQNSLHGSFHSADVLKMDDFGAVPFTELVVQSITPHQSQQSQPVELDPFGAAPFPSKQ

[14] = target: T1, GABA-A receptor; anion channel (Homo sapiens); assay: BZD (central) CEREP ligand profiling; assay type: protein-complex assay; details: Compound concentration 10.0 uM
[15] = target: Adrenergic receptor alpha-1 (Homo sapiens) (UniProt P35348+P25100+P35368); assay: alpha1 CEREP ligand profiling; assay type: protein assay; details: Compound concentration 10.0 uM
[16] = target: Adenosine receptor A1 (Homo sapiens) (UniProt P30542); assay: A1 CEREP ligand profiling; details: Compound concentration 10.0 uM
[17] = target: 5-hydroxytryptamine receptor 5A (Homo sapiens) (UniProt P47898); assay: 5-HT5A (h) CEREP ligand profiling; details: Compound concentration 10.0 uM
[18] = target: Kappa-type opioid receptor (Cavia porcellus) (UniProt P41144); assay: kappa (guinea pig) CEREP ligand profiling; details: Compound concentration 10.0 uM
[19] = target: Delta-type opioid receptor (Homo sapiens) (UniProt P41143); assay: delta 2 (h) CEREP ligand profiling; details: Compound concentration 10.0 uM
[20] = target: D(1A) dopamine receptor (Homo sapiens) (UniProt P21728); assay: D1 (h) CEREP ligand profiling; details: Compound concentration 10.0 uM
[21] = target: 5-hydroxytryptamine receptor 1B (Homo sapiens) (UniProt P28222); assay: 5-HT1B CEREP ligand profiling; details: Compound concentration 10.0 uM
[22] = target: P2Y receptor (Homo sapiens) (UniProt Q9H244+P51582+P47900+P41231+Q15391+Q15077+Q96G91+Q9BPV8); assay: P2Y CEREP ligand profiling; assay type: protein assay; details: Compound concentration 10.0 uM
[23] = target: 5-hydroxytryptamine receptor 2A (Homo sapiens) (UniProt P28223); assay: 5-HT2A (h) CEREP ligand profiling; details: Compound concentration 10.0 uM
[24] = GABA CEREP ligand profiling; details: Compound concentration 10.0 uM
[25] = test system: Epidermal growth factor receptor (Homo sapiens), P00533 [T790M]; details: Compound concentration 1000.0 nM
[26] = target: Serine/threonine-protein kinase Chk2 (Homo sapiens) (UniProt O96017); details: Compound concentration 1000.0 nM
Sequence of Serine/threonine-protein kinase Chk2 (Homo sapiens) (O96017 whole entry): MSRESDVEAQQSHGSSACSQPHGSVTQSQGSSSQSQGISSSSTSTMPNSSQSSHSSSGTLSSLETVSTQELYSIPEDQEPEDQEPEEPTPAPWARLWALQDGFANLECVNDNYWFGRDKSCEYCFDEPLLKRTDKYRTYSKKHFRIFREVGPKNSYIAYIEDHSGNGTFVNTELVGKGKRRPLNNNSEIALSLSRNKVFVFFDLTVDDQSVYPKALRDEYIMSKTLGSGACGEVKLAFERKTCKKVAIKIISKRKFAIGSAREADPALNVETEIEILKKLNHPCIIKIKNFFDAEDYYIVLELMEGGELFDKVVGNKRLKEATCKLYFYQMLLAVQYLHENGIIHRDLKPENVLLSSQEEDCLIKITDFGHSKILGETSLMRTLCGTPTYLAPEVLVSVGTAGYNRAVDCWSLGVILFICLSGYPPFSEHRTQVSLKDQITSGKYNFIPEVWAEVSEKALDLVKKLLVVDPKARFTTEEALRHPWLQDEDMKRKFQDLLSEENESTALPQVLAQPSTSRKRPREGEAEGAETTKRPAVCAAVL

[27] = target: Sigma non-opioid intracellular receptor 1 (Homo sapiens, UniProt Q99720); assay: GPCRScan assay: inhibition of Sigma 1; design: radioligand conc. used [nm] 4.0 – 5.0, parental cells HEKT
Sequence of Sigma non-opioid intracellular receptor 1 (Q99720 whole entry): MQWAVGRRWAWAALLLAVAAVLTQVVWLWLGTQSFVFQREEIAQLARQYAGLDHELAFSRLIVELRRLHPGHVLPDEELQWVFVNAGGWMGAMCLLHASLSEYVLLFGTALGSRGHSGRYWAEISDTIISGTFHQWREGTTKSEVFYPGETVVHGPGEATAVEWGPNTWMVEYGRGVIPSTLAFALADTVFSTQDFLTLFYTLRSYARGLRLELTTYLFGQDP

[28] = target: Cholecystokinin receptor type A (Homo sapiens) (UniProt P32238); assay: CCKA (h) CEREP ligand profiling; details: Compound concentration 10.0 uM
[29] = target: Sodium-dependent dopamine transporter (Homo sapiens) (UniProt Q01959); assay: DA transporter(h) CEREP ligand profiling; details: Compound concentration 10.0 uM
[30] = target: Neuromedin-K receptor (Homo sapiens) (UniProt P29371); assay: NK3 (h) CEREP ligand profiling; details: Compound concentration 10.0 uM
[31] = target: Neurotensin receptor type 1 (Homo sapiens) (UniProt P30989); assay: NT1 (h) CEREP ligand profiling; details: Compound concentration 10.0 uM
[32] = target: Vasoactive intestinal polypeptide receptor 1 (Homo sapiens) (UniProt P32241); assay: VIP1 (h) CEREP ligand profiling; details: Compound concentration 10.0 uM
[33] = target: Histamine H2 receptor (Homo sapiens) (UniProt P25021); assay: H2 (h) CEREP ligand profiling; details: Compound concentration 10.0 uM
[34] = target: Galanin receptor type 1 (Homo sapiens) (UniProt P47211); assay: GAL1 (h) CEREP ligand profiling; details: Compound concentration 10.0 uM
[35] = target: Ribosomal protein S6 kinase alpha-2 (Homo sapiens) (UniProt Q15349); details: Compound concentration 1000.0 nM
Sequence of Ribosomal protein S6 kinase alpha-2 (Homo sapiens) (Q15349 whole entry): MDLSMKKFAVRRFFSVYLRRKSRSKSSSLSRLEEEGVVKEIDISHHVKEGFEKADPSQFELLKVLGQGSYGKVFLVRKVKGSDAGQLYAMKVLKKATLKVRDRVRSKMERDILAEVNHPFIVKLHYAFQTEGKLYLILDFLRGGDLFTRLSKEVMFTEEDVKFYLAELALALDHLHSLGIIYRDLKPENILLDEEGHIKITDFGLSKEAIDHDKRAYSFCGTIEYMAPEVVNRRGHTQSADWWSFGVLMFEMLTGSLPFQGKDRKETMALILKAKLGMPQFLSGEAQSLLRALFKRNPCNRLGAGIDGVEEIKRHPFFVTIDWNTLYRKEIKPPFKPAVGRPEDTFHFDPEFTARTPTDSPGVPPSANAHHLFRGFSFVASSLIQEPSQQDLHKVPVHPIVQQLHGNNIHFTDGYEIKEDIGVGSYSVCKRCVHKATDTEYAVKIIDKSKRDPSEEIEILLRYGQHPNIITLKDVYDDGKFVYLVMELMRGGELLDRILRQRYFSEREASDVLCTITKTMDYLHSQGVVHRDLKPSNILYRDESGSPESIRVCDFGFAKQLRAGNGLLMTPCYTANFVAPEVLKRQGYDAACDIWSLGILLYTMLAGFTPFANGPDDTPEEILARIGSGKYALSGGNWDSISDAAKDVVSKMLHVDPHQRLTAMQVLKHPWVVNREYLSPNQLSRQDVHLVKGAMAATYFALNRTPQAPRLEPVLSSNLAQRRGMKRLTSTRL

[36] = target: Type-1 angiotensin II receptor (Homo sapiens) (UniProt P30556); assay: AT1 (h) CEREP ligand profiling; details: Compound concentration 10.0 uM
[37] = target: Kappa-type opioid receptor (Homo sapiens) (UniProt P41145); details: Compound concentration 10.0 uM
Sequence of Kappa-type opioid receptor (Homo sapiens) (P41145 whole entry): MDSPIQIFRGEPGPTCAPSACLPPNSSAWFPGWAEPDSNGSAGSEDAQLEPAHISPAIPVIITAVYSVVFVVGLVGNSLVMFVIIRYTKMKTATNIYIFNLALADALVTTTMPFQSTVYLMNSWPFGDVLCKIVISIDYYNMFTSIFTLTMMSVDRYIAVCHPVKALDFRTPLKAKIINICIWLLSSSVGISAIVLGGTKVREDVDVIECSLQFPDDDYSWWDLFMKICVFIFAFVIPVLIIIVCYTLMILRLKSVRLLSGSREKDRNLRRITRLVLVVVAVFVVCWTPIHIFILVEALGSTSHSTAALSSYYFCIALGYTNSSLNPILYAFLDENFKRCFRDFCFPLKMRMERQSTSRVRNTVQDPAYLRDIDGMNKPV

[38] = GPCRScan assay: inhibition of GABA/PBR; design: species or system Rattus norvegicus; radioligand conc. used [nm] 0.3 – 2.0, parental cells brain tissue
[39] = target: Calcium/calmodulin-dependent protein kinase kinase 1 (Homo sapiens) (UniProt Q8N5S9); details: Compound concentration 1000.0 nM
[40] = target: Calcium/calmodulin-dependent protein kinase kinase 2 (Homo sapiens) (UniProt Q96RR4); details: Compound concentration 1000.0 nM
[41] = target: Misshapen-like kinase 1 (Homo sapiens) (UniProt Q8N4C8); details: Compound concentration 1000.0 nM
[42] = target: Serine/threonine-protein kinase D3 (Homo sapiens) (UniProt O94806); details: Compound concentration 1000.0 nM
[43] = target: Rho-associated protein kinase 2 (Homo sapiens) (UniProt O75116); details: Compound concentration 1000.0 nM
[44] = target: Dual specificity mitogen-activated protein kinase kinase 5 (Homo sapiens) (UniProt Q13163); details: Compound concentration 1000.0 nM
[45] = test system: Tyrosine-protein kinase ABL1 (Homo sapiens), P00519 [M351T]; details: Compound concentration 1000.0 nM

Sequence of Tyrosine-protein kinase JAK1 (Homo sapiens) (P23458 whole entry): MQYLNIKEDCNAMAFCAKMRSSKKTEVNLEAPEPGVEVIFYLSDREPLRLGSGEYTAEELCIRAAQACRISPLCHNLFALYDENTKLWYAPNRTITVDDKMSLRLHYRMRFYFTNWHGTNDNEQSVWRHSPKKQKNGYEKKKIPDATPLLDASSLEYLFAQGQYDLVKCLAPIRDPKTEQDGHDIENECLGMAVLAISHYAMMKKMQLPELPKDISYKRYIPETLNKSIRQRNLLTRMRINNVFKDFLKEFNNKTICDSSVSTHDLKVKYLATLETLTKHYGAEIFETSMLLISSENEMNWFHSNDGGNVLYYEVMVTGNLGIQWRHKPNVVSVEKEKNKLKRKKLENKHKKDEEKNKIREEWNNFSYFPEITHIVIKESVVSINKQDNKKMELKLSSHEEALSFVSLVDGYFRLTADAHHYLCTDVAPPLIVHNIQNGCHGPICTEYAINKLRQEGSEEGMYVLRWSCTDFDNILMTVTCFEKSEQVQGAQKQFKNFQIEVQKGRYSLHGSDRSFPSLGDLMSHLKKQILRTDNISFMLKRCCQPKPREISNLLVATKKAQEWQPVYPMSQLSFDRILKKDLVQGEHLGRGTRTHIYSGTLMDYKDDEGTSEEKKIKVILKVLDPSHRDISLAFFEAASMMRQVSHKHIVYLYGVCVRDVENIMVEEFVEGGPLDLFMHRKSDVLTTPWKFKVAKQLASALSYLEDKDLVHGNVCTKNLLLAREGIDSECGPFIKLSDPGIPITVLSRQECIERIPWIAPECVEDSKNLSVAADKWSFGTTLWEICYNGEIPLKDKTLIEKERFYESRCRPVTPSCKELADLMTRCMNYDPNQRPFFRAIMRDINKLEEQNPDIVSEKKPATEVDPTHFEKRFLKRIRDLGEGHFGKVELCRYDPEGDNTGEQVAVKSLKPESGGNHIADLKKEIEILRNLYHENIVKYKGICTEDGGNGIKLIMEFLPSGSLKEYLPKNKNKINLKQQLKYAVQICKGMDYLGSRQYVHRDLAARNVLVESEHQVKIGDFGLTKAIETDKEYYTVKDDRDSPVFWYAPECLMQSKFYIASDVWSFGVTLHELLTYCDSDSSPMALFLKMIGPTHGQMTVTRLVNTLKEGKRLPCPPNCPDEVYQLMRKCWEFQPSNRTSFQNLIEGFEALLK
Sequence of Ribosomal protein S6 kinase beta-1 (Homo sapiens) (P23443 whole entry, looked up): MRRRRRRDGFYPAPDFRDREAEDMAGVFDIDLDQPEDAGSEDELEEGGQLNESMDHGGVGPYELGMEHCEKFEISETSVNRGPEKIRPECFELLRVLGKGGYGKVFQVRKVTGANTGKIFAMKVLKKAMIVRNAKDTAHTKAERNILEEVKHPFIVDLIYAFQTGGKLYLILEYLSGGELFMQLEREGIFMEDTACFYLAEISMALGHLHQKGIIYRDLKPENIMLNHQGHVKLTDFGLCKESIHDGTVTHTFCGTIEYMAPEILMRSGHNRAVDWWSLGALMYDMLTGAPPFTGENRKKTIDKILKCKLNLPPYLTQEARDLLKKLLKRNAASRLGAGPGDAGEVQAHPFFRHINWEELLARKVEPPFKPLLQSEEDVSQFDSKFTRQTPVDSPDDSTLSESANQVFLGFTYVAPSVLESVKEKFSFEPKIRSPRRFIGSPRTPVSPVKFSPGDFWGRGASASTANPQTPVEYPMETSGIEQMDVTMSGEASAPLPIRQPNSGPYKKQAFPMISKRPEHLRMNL
Sequence of Melanocortin receptor 4 (Homo sapiens) (P32245 whole entry): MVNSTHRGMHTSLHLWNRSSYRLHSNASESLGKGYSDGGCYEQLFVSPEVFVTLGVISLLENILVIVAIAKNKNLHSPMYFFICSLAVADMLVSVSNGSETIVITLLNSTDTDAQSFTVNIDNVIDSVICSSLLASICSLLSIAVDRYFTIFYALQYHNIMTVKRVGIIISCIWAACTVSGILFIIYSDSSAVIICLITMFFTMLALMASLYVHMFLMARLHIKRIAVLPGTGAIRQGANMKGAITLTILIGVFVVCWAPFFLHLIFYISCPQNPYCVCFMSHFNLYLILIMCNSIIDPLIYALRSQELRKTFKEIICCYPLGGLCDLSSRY

CCC(=N\O)/C(C)=C/c1ccc(F)cc1 [A-079] gave an inhibition [1] of 2%, a residual activity [2] of 66% and a residual activity [3] of 96%. The inhibition [4] was 26%, the inhibition [5] was 5% and the inhibition [6] was 14%. The inhibition [7] was 1%, the inhibition [8] was -8% and the inhibition [9] was 3%. For the same molecule, the inhibition [10] was 32%, the inhibition [11] was -2% and the inhibition [12] was -1%. It also gave a residual activity [13] of 80%, an inhibition [14] of 1% and an inhibition [15] of 6%. The inhibition [16] was 8%, the inhibition [17] was 4% and the inhibition [18] was -4%. For the same molecule, the inhibition [19] was 11%, the inhibition [20] was 6% and the inhibition [21] was 14%. The inhibition [22] was 7%, the inhibition [23] was -1% and the inhibition [24] was -3%. It also gave a residual activity [25] of 100%, a residual activity [26] of 85% and a Ki ([27]; read-out: Ki) of 505 nM. It also gave a Ki ([27]; read-out: pKi (converted)) of 457 nM, an inhibition [28] of 29% and an inhibition [29] of 43%. For the same molecule, the inhibition [30] was 23%, the inhibition [31] was -5% and the inhibition [32] was 0%. It also gave an inhibition [33] of 3%, an inhibition [34] of 5% and a residual activity [35] of 100%. The inhibition [36] was -1% and the inhibition [37] was 15.7%.
In the case of CCC(=N\O)/C(C)=C/c1ccc(F)c(C)c1 [A-226], the residual activity [2] is reported as 100%, the Ki [38] is reported as 3690 nM and the pKi [38] is reported as 5.44. For the same molecule, the residual activity [3] was 100%, the residual activity [39] was 100% and the residual activity [40] was 88%. It also gave a residual activity [41] of 92%, a residual activity [42] of 100% and a residual activity [13] of 100%. The residual activity [43] was 100%, the residual activity [44] was 86% and the residual activity [25] was 100%. For the same molecule, the residual activity [26] was 90%, the Ki ([27]; read-out: Ki) was 529 nM and the residual activity [35] was 100%. It also gave an inhibition [37] of 8.6% and a residual activity [45] of 100%.
